In patent publication US10934280B2, “Condensed thiophene derivatives useful as NaPi-IIb inhibitors” (Eli Lilly and Company, priority 2016, dated 2021):
Counter-ions that a name gives are not always drawn.

Tests used:
[1] = target: T1, murine NaPi-IIb (Mus musculus, UniProt Q9DBP0); assay: Inhibition of 33P uptake in mouse NaPi-IIb T-REX-CHO stable cell line; type: cell-based; settings: 60 min at RT, geometric mean (SD), read-out: m NaPi-IIb rel IC50 (nM), (SD)
T1 construct: expressed in transfected cells
T1 sequence (Q9DBP0 1-697): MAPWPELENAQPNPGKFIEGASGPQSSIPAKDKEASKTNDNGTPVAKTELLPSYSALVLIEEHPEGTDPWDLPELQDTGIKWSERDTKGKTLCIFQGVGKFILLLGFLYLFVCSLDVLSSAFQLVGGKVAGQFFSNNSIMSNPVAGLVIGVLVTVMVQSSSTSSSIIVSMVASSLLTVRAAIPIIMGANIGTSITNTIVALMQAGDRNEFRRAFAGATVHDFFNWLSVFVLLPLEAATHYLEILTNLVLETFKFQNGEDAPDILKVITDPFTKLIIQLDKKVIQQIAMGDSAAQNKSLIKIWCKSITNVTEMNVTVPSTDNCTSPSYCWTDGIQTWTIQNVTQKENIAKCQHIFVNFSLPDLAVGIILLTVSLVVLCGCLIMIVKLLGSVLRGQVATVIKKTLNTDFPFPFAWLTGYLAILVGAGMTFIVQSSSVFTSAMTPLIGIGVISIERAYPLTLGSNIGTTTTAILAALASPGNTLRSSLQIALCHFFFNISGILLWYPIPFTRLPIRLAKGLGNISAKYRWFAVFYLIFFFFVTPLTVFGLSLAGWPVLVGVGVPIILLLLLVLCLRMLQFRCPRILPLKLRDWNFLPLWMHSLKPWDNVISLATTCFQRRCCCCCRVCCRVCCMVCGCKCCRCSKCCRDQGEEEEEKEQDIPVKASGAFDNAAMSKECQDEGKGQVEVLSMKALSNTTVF
Method: Inhibition of ^33P uptake is measured in human and mouse NaPi-IIb T-REX™-CHO stable cell lines. cDNA for NaPi-IIb is subcloned in plasmid SLC34A2 pcDNA5/TO (human) and SLC34A2 pcDNA5/TO (mouse) and stable cell lines are generated from clonal isolation for both human and mouse respectively. Mouse and human stable lines are maintained in continuous culture in growth media (Dulbecco's Modified Eagle Medium: Nutrient Mixture F-12 (3:1), 10% Heat Inactivated FBS, 1% penicillin/streptomycin/FUNGIEZONE® (HYCLONE™), 20 mM HEPES, 250 μg/mL hygromycin, 5 μg/mL blasticidin). Cells are harvested from T225 cell culture flasks (CORNING®) using 0.25% Trypsin, and plated in 96 well CYTOSTAR-T™ scintillating microplates (Amersham Systems) at 40,000 cells/well in 100 μL of growth media plus 100 ng/mL of tetracycline. Cell plates are incubated overnight at 37° C. and 5% C02. The next day, compounds are serially diluted using one to three dilutions in 100% DMSO. Cell plates may remain in the incubator until ready to be assayed. A cell plate is removed from the incubator and media removed. Cells are washed 3 times with 200 μL assay buffer (137 mM NaCl, 5.4 mM KCl, 2.8 mM CaCl2), 1.2 mM MgSO4, and 14 mM Tris-HCl buffer, pH˜7.5), removing buffer in between washes. Serially diluted compounds in DMSO are further diluted 50 fold in assay buffer and 50 μL added to the CYTOSTAR-T™ assay plate, immediately followed by the addition of 50 μL of ^33P solution (PERKIN-ELMER®, Walton, Mass.; 0.05 μCi/50 μL). CYTOSTAR-T™ assay plates are covered with foil to protect from light and incubated for 60 min at RT. After the 60 min incubation, 100 μL of a stop solution (assay buffer+400 μM Phloretin) is added to the assay plate to stop ^33P uptake. The plate is immediately read on a Wallac MICROBETA® Trilux liquid scintillation counter and luminometer after stop solution is added with 1 minute count per well. Each plate may be processed separately and staggered in time so there may be no delay in counting after stop solution is added. Percent inhibition at all concentrations tested (final assay concentrations 100-0.005 μM) are calculated relative to 1% DMSO (minimum effect), and the effect of 100 μM of a fully efficacious NaPi-IIb inhibitor (maximum effect). IC50 values were calculated using a 4 parameter logistic curve fitting equation. The numbers presented are the geometric means with standard deviation (SD) calculated where n is the number of runs. Thus. Table 1 describes the relative IC50 values for Examples 1-28 against human NaPi-IIb and murine NaPi-IIb, respectively.

[2] = target: T2, NaPi-IIb (Mus musculus, UniProt Q9DBP0); assay: Inhibition of NaPi-IIb in vivo: plasma counts after oral radioactive phosphate in mice
T2 construct: from tissue; host or cells: living C57Bl6 mice (gastrointestinal tract)
T2 sequence (Q9DBP0 1-697): T1 sequence (Q9DBP0 1-697)
Method: For test article and vehicle control preparation, add vehicle, 20% hydroxypropyl-beta-cyclodextrin (HPBCD) in water, to the test article. Sonicate to reduce particle size in an ultrasonic water bath as needed. If necessary, use a polytron to break down any visible particles in test article solution. The pH of the vehicle control is adjusted to 8.0 to 8.5 with 1N NaOH.
Radioactive phosphate preparation: Prepare a 16.25 mM Na2HPO4 solution using 0.9% saline as the vehicle. Mix until a clear solution is formed. Adjust pH to approximately 7.4. Filter using a sterile 0.2 μm polyethersulfone membrane. For the final preparation of the radioactive phosphate dosing solution, add 0.5 μl of stock H3^3PO4 per 1 mL of Na2HPO4. Mix thoroughly then sterile filter the H3^33PO4+Na2HPO4 solution using a 0.2 μm polyethersulfone membrane prior to dosing. Measure the radioactivity of each sample with the scintillation counter. If the DPMs are between 100,000 and 150,000 proceed with dosing.
In-vivo protocol: Male C57B16 male mice at the age of about 8-9 wks old are fasted for 16 hrs the day before the study. They are assigned to treatment groups based on body weight on the day of study. Mice are dosed orally with either the test article, prepared as described above, or vehicle control at a 10 mis/kg dose volume. Fifteen minutes later, the radioactive phosphate dosing solution is given by oral gavage. Fifteen minutes later, blood is collected by orbital bleed. Plasma is prepared and 50 μl of EDTA plasma from each mouse is mixed with 10 ml of scintillation fluid and the counts determined by scintillation counting. The effect of the test article is determined by comparing the counts in the plasma from the test article treated animals to counts in the plasma of the vehicle control treated animals [Percent Inhibition=[…]]. Percent inhibition is measured at 30 minutes post administration of the compound or vehicle, and at 15 minutes post administration of the labelled phosphate. Percent Inhibition for indicated Examples are illustrated in Table 3 below.
Alternative vehicles, for example poly-1-vinylpyrrolidone-co-vinyl acetate (PVP-VA), at varying concentrations, may be used. Example 1 can be assayed in PVP-VA, and for this study the compound is formulated as described in the solid dispersion preparation of Example 1, followed by dissolving in water then dosing by oral gavage. The vehicle control is water with varying concentrations of PVP-VA, matching the concentration found in the highest dose of Example 1, the lowest dose of Example 1, and an intermediate dose of Example 1. No effect of varying PVP-VA on the uptake of radiolabeled phosphate is observed over several studies, and thus all the vehicles are averaged to calculate percent inhibition.

[3] = test system: gastric emptying; assay: Effect on gastric emptying in vivo (radiolabeled phosphate recovered from stomach); set-up: species or system mice
Method: The effect of a test compound on gastric emptying can be assessed by dosing the compound and radiolabeled phosphate in a manner similar to that used to assess a compound's ability to inhibit NaPi-IIb in vivo. After bleeding the mice, they were sacrificed and their stomachs harvested. The harvested stomachs are digested in 10 ml of 1N NaOH overnight, and the recovered radiolabeled phosphate DPMs determined by scintillation counting. The compound mediated effect on the rate of gastric emptying is determined by comparing the dpms in the stomach of animals treated with compound, to that of animals treated with vehicle.

[4] = test system: normal rats; assay: Four-day in vivo tolerability/toxicity in normal rats; settings: administered in vivo to normal rats for four days
Excerpt: Compounds of the invention, for instance Example 1, show advantageous pharmacological properties, such as potency, in vivo distribution, in vivo efficacy, and favorable lack of toxicity in preclinical testing.

[5] = 5 mg/kg oral, 20% HPBCD vehicle, fasted male mice, 30 min post compound, 15 min post labelled phosphate

CNC(=O)N1C2CCC1CN(Cc1cccc(C(=O)Nc3sc4ccccc4c3C(=O)Nc3cc(F)c(CCc4ccc(C(=O)O)cc4)c(F)c3)c1)C2 [Example 13, 4-[2-[2,6-difluoro-4-[[2-[[3-[[8-(methylcarbamoyl)-3,8-diazabicyclo[3.2.1]octan-3-yl]methyl]benzoyl]amino]benzothiophene-3-carbonyl]amino]phenyl]ethyl]benzoic Acid, Formic Acid Salt]
IC50 [1]: 9 nM

CC1(C)CN(C(=O)CN)CCN1Cc1cccc(C(=O)Nc2sc3c(c2C(=O)Nc2cc(F)c(CCc4ccc(C(=O)O)cc4)c(F)c2)CCCC3)c1 [Example 6, 4-[2-[4-[[2-[[3-[[4-(2-aminoacetyl)-2,2-dimethyl-piperazin-1-yl]methyl]benzoyl]amino]-4,5,6,7-tetrahydrobenzothiophene-3-carbonyl]amino]-2,6-difluoro-phenyl]ethyl]benzoic Acid]
Percent Inhibition [2, 5]: 62%

CC1(C)CN(CCCC(=O)O)CCN1Cc1cccc(C(=O)Nc2sc3c(c2C(=O)Nc2cc(F)c(CCc4ccc(C(=O)O)cc4)c(F)c2)CCCC3)c1 [Example 4, 4-[2-[4-[[2-[[3-[[4-(3-carboxypropyl)-2,2-dimethyl-piperazin-1-yl]methyl]benzoyl]amino]-4,5,6,7-tetrahydrobenzothiophene-3-carbonyl]amino]-2,6-difluoro-phenyl]ethyl]benzoic Acid]
Percent Inhibition [2, 5]: 52%

COCCN(CCOC)S(=O)(=O)N1CCN(Cc2cccc(C(=O)Nc3sc4c(c3C(=O)Nc3cc(F)c(CCc5ccc(C(=O)O)cc5)c(F)c3)CCCC4)c2)C(C)(C)C1 [Example 3, 4-[2-[4-[[2-[[3-[[4-[bis(2-methoxyethyl)sulfamoyl]-2,2-dimethyl-piperazin-1-yl]methyl]benzoyl]amino]-4,5,6,7-tetrahydrobenzothiophene-3-carbonyl]amino]-2,6-difluoro-phenyl]ethyl]benzoic Acid]
IC50 [1]: 40.9 nM

CC1(C)CN(C(=O)NCCCCO)CCN1Cc1cccc(C(=O)Nc2sc3c(c2C(=O)Nc2cc(F)c(CCc4ccc(C(=O)O)cc4)c(F)c2)CCCC3)c1 [Example 1, 4-[2-[2,6-difluoro-4-[[2-[[3-[[4-(4-hydroxybutylcarbamoyl)-2,2-dimethyl-piperazin-1-yl]methyl]benzoyl]amino]-4,5,6,7-tetrahydrobenzothiophene-3-carbonyl]amino]phenyl]ethyl]benzoic Acid]
Percent Inhibition ([2]; 0.03 mg/kg oral gavage, PVP-VA solid dispersion formulation in water, mice): 0.75%
Percent Inhibition ([2]; 0.1 mg/kg oral gavage, PVP-VA solid dispersion formulation in water, mice): 30.61%
Percent Inhibition ([2]; 0.3 mg/kg oral gavage, PVP-VA solid dispersion formulation in water, mice): 51.21%
Percent Inhibition ([2]; 1 mg/kg oral gavage, PVP-VA solid dispersion formulation in water, mice): 66.90%
Percent Inhibition ([2]; 3 mg/kg oral gavage, PVP-VA solid dispersion formulation in water, mice): 68.71%
Percent Inhibition ([2]; 10 mg/kg oral gavage, PVP-VA solid dispersion formulation in water, mice): 75.64%
Percent Inhibition ([2]; 30 mg/kg oral gavage, PVP-VA solid dispersion formulation in water, mice): 75.83%
margin of NaPi-IIb inhibition with respect to inhibition of in vivo gastric emptying [3]: surprisingly advantageous margin
tolerability [4]: generally well tolerated
toxicity [4]: advantageous lack of toxicity

CC1(C)CN(C(=O)CCC(=O)O)CCN1Cc1cccc(C(=O)Nc2sc3c(c2C(=O)Nc2cc(F)c(CCc4ccc(C(N)=O)cc4)c(F)c2)CCCC3)c1 [Example 8, 4-[4-[[3-[[3-[[4-[2-(4-carbamoylphenyl)ethyl]-3,5-difluoro-phenyl]carbamoyl]-4,5,6,7-tetrahydrobenzothiophen-2-yl]carbamoyl]phenyl]methyl]-3,3-dimethyl-piperazin-1-yl]-4-oxo-butanoic Acid]
Percent Inhibition [2, 5]: 60%

COCCCCNC(=O)N1CCN(Cc2cccc(C(=O)Nc3sc4c(c3C(=O)Nc3cc(F)c(CCc5ccc(C(=O)O)cc5)c(F)c3)CCCC4)c2)C(C)(C)C1 [Example 7, 4-[2-[2,6-difluoro-4-[[2-[[3-[[4-(4-methoxybutylcarbamoyl)-2,2-dimethyl-piperazin-1-yl]methyl]benzoyl]amino]-4,5,6,7-tetrahydrobenzothiophene-3-carbonyl]amino]phenyl]ethyl]benzoic Acid]
IC50 [1]: 8.56 nM
